Data: paper PMC5522996, “Big conductance calcium‐activated potassium channel openers control spasticity without sedation” (British Journal of Pharmacology, 2017)

Experiments:
healthy humans = test: Phase I single dose: haematology and serum chemistry; type: in vivo, human; details: Day 2
CYP450 2A6 = CYP450 2A6 (Homo sapiens, UniProt P11509); test: CYP450 inhibition of substrate binding
Description: IC50 Inhibition of substrate binding
Inhibition of binding of either 3-cyano-7-ethoxycoumarin, dibenzylfluorescein or 7-benzyoxy-4-
(trifluoromethyl) coumarin in human enzyme transfected BTI NN-5B1-4 cells or Sf9 insect cells or
inhibition of dextromethorphan substrate to CYP450 2D6 in liver microsomes.

Pharmacokinetics in rats = type: in vivo, rat
Protocol: The stability of compounds when subjected to hepatic and plasma degradation was assessed in vitro by Inpharmatica, Cambridge, UK. Compounds (1 μM) were incubated with either pooled mouse liver microsomes (0.1 mg protein mL^−1) or pooled mouse plasma at 37°C for 0, 5, 10, 20 and 40 min before termination with acetonitrile containing warfarin as an analytical internal standard. Samples were centrifuged, and the resultant supernatant analysed for parent compound. The mass responses at baseline were taken as the 100% reference values against which the disappearance of the compound was measured. The natural log of the % remaining values was used to generate linear plots of disappearance of the compounds. Half‐life values were calculated from the slope of these plots. Hepatocyte metabolism was assessed by Cyprotex, Macclesfield, and 10 μM VSN16R was incubated with primary mouse, rat, monkey (Macaque) and human hepatocytes for 1 h, and the presence of metabolites was assessed using liquid […] mass spectroscopy. The stability of VSN16R was assessed in vivo by Inpharmatica, Cyprotex and Charles Rivers, Cambridge. Blood (plasma) samples were obtained prior to and 5 min to 24 h after drug administration of 2–5 mg·kg^−1 i.v. or 5 mg·kg^−1 p.o. VSN16R into outbred mice and rats (n = 3 per time point). In addition, plasma, brain and spinal cord samples were obtained from ABH with spastic EAE. Immediately after blood collection, the brain and spinal cord were removed and then stored at −20°C prior to assay. Tissue samples were weighed, homogenized and centrifuged, and the lysates generated. Brain lysates and plasma were assayed by LC–MS methods by Inpharmatica/Charles Rivers, Cambridge, UK. This was also performed using a Waters Xevo TQ or API4000, AB Sciex mass spectrometer using spiked samples as standards. PK Solutions Software (Summit Research Services, Montrose, CO, USA), AB Sciex Analyst software combined with Thermo Fisher Scientific Watson LIMS processing and reporting software or WinNonLin pharmacokinetic or PK solutions 2.0 software (Summit Research Services, Montrose CO, USA) were used to produce PK parameters. Data are expressed as mean ± SEM. The detection limit of VSN16R was 2 ng·mL^−1 in plasma and brain and 14 ng·mL^−1 in spinal cords. The detection limit of VSN22R was 2 ng·mL^−1 in plasma and 0.1 ng·mL^−1 for VSN44R in plasma. Pharmacokinetics in toxicological samples in rats (n = 6 per group), dogs (n = 6 per group) and humans (n = 6 per group) were performed by Charles Rivers (Edinburgh, UK).

sst(non-selective) = test: Receptor binding profile of VSN16R; design: species or system human; details: 10µM VSN16R
EDG6 = biological target: T1, EDG6 (Homo sapiens, UniProt O95977); test: Receptor binding profile of VSN16R; details: 10µM VSN16R
T1 construct: purchased Cerep; Chantest; DiscoveRx; Multispan; MDS Pharma Services
T1 sequence (O95977 whole entry): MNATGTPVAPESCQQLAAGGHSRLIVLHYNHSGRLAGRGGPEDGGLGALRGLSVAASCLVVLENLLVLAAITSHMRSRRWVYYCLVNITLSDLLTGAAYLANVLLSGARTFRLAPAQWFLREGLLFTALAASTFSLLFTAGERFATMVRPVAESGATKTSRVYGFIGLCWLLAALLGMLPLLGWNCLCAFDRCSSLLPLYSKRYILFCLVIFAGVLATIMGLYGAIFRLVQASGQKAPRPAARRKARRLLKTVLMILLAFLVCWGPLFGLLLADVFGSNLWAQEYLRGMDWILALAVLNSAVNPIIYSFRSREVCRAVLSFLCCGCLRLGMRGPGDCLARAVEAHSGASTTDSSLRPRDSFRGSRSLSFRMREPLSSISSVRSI

5-HT2A = biological target: T2, 5-HT2A (Homo sapiens, UniProt P28223); test: Receptor binding profile of VSN16R; details: 10µM VSN16R
T2 construct: purchased Cerep; Chantest; DiscoveRx; Multispan; MDS Pharma Services
T2 sequence (P28223 whole entry): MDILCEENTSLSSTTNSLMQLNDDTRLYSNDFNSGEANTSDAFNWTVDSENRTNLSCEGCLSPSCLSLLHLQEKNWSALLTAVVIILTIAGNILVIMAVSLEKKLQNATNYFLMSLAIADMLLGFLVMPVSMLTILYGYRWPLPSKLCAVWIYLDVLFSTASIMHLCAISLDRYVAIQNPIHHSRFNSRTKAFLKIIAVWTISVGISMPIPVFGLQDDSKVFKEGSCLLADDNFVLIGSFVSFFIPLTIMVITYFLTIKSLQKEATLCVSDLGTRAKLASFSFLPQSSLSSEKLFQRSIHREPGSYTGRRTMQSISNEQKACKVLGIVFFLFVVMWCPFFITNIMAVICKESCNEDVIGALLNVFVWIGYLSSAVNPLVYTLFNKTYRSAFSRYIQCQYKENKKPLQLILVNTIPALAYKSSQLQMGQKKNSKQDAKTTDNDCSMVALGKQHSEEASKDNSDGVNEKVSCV

EDG2 = biological target: T3, EDG2 (Homo sapiens, UniProt Q92633); test: Receptor binding profile of VSN16R; details: 10µM VSN16R
T3 construct: purchased Cerep; Chantest; DiscoveRx; Multispan; MDS Pharma Services
T3 sequence (Q92633 whole entry): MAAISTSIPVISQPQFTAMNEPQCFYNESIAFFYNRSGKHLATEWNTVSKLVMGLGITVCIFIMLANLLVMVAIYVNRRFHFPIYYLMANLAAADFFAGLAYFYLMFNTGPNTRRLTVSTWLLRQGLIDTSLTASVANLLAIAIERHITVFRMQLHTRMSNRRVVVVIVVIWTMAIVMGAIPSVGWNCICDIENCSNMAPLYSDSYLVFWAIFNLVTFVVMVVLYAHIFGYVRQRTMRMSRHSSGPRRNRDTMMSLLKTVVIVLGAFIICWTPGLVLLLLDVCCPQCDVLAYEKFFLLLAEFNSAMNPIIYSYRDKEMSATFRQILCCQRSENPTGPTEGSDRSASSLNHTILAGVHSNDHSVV

BZD = test: Receptor binding profile of VSN16R; design: species or system human; details: 10µM VSN16R
mouse Gpr55 = biological target: T4, mouse Gpr55 (Mus musculus, UniProt Q3UJF0); test: Nuclear CREB expression, DBT cells transfected with mouse Gpr55; type: cell-based; details: 10 μM
T4 construct: expressed in transfected cells; host or cells: DBT cells
T4 sequence (Q3UJF0 whole entry): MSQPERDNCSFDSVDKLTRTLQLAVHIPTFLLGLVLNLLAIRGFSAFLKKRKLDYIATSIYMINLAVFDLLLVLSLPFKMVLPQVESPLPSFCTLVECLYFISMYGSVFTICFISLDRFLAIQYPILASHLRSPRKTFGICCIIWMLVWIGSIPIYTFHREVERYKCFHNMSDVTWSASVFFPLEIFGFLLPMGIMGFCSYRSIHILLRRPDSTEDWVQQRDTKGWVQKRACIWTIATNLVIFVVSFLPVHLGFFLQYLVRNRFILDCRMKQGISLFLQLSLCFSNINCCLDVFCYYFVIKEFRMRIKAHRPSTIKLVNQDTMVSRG

[1] = first 12 h following p.o. dosing of rats

Chain of CYP450 2A6 (P11509 whole entry): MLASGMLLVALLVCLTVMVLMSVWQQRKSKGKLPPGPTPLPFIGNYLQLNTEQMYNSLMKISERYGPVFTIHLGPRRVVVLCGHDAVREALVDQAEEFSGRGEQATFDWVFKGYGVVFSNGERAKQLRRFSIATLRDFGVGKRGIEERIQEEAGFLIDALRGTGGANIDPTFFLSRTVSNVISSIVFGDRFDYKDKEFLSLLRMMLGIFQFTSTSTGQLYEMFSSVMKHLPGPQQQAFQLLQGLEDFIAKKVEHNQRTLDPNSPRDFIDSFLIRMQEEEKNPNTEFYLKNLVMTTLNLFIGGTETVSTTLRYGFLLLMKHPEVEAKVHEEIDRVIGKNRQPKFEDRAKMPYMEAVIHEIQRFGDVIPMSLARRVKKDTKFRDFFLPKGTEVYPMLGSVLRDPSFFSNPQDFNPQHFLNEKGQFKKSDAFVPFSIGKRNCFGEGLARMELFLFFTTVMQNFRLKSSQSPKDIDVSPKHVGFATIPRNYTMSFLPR

For `C[C@H](CO)NC(=O)c1cccc(/C=C\CCCC(=O)N(C)C)c1` [VSN16R], the Albumin (healthy humans; 25mg) was 42 ± 1 g/L, the Amylase (healthy humans; 25mg) was 65 ± 21 U/L and the Basophils (healthy humans; 25mg) was 0.0 ± 0.0 109 cells/L. It also gave a Bilirubin (healthy humans; 25mg) of 14.9 ± 6.1 µmol/L, a Calcium (healthy humans; 25mg) of 2.40 ± 0.08 mmol/L and a Chloride (healthy humans; 25mg) of 104 ± 2 mmol/L. The Cholesterol (healthy humans; 25mg) was 4.79 ± 0.77 mmol/L, the Creatinine (healthy humans; 25mg) was 84 ± 10 µmol/L and the Eosinophils (healthy humans; 25mg) was 0.2 ± 0.1 109 cells/L. The Globulin (healthy humans; 25mg) was 28.8 ± 5.6 g/L, the Glucose (healthy humans; 25mg) was 4.78 ± 0.58 mmol/L and the Haemoglobin (healthy humans; 25mg) was 9.4 ± 0.5 mmol/L. The Hematocrit (healthy humans; 25mg) was 0.425 ± 0.021, the Lymphocytes (healthy humans; 25mg) was 1.9 ± 0.6 109 cells/L and the Magnesium (healthy humans; 25mg) was 0.8 ± 0.0 mmol/L. For the same molecule, the Monocytes (healthy humans; 25mg) was 0.5 ± 0.1 109 cells/L, the Neutrophils (healthy humans; 25mg) was 2.5 ± 0.6 109 cells/L and the Phosphate (healthy humans; 25mg) was 1.20 ± 0.10 mmol/L. The Potassium (healthy humans; 25mg) was 4.27 ± 0.18 mmol/L, the “Red Blood Cells” value (healthy humans; 25mg) was 4.94 ± 0.30 1012 cells/L and the Sodium (healthy humans; 25mg) was 141 ± 2 mmol/L. For the same molecule, the Triglycerides (healthy humans; 25mg) was 1.26 ± 0.25 mmol/L, the Urea (healthy humans; 25mg) was 4.4 ± 0.9 mmol/L and the “White Blood Cells” value (healthy humans; 25mg) was 5.2 ± 1.2 109 cells/L. The Albumin (healthy humans; 800mg) was 42 ± 1 g/L, the Amylase (healthy humans; 800mg) was 50 ± 12 U/L and the Basophils (healthy humans; 800mg) was 0.0 ± 0.0 109 cells/L. It also gave a Bilirubin (healthy humans; 800mg) of 11.4 ± 3.0 µmol/L, a Calcium (healthy humans; 800mg) of 2.35 ± 0.04 mmol/L and a Chloride (healthy humans; 800mg) of 104 ± 1 mmol/L. The Cholesterol (healthy humans; 800mg) was 4.68 ± 0.78 mmol/L, the Creatinine (healthy humans; 800mg) was 84 ± 10 µmol/L and the Eosinophils (healthy humans; 800mg) was 0.3 ± 0.1 109 cells/L. It also gave a Globulin (healthy humans; 800mg) of 28.9 ± 1.2 g/L, a Glucose (healthy humans; 800mg) of 5.51 ± 0.92 mmol/L and a Haemoglobin (healthy humans; 800mg) of 9.3 ± 0.5 mmol/L. The Hematocrit (healthy humans; 800mg) was 0.421 ± 0.016, the Lymphocytes (healthy humans; 800mg) was 1.8 ± 0.6 109 cells/L and the Magnesium (healthy humans; 800mg) was 0.8 ± 0.1 mmol/L. The Monocytes (healthy humans; 800mg) was 0.5 ± 0.1 109 cells/L, the Neutrophils (healthy humans; 800mg) was 2.7 ± 1.2 109 cells/L and the Phosphate (healthy humans; 800mg) was 1.02 ± 0.10 mmol/L. For the same molecule, the Potassium (healthy humans; 800mg) was 4.19 ± 0.25 mmol/L, the “Red Blood Cells” value (healthy humans; 800mg) was 4.87 ± 0.30 1012 cells/L and the Sodium (healthy humans; 800mg) was 142 ± 3 mmol/L. The Triglycerides (healthy humans; 800mg) was 1.55 ± 0.61 mmol/L, the Urea (healthy humans; 800mg) was 4.7 ± 0.4 mmol/L and the “White Blood Cells” value (healthy humans; 800mg) was 5.0 ± 1.1 109 cells/L. The IC50 (CYP450 2A6) was greater than 10 µM, the Faecal elimination (Pharmacokinetics in rats; [1]) was “approximately 1 % of the dose” and the Renal excretion (Pharmacokinetics in rats; [1]) was “less than 0.5 % of the dose”. For the same molecule, the bioavailability (Pharmacokinetics in rats; in vivo, po, 5 mg·kg^−1 p.o., rat) was 40%, the half-life (Pharmacokinetics in rats; rat, plasma, po, 5 mg·kg^−1 p.o., rats, read-out: Elimination half‐life) was 43 min and the Activity (sst(non-selective)) was “Negligible Activity”. The Activity (EDG6) was “Negligible Activity”, the Activity (5-HT2A) was “Negligible Activity” and the Activity (EDG2) was “Negligible Activity”. For the same molecule, the Activity (BZD) was “Negligible Activity” and the “Activity on DBT cells transfected with mouse Gpr55” value (mouse Gpr55) was “Lack of activity”.
